In article PMC8509773, “3-Pyridinylidene Derivatives of Chemically Modified Lupane and Ursane Triterpenes as Promising Anticancer Agents by Targeting Apoptosis” (International Journal of Molecular Sciences, 2021):
Marks after values point to notes of the source that are not given here.

Experiments:
[1] = tested on: NCI-60 cancer cell line panel; test: NCI-60 cancer cell line panel screening (whole panel / subpanels); type: cell-based; details: for Selectivity index (SI): full panel MG_MID / subpanel MG_MID
Experimental: At first, compounds were tested in a single high dose concentration regimen (10 µM) against a panel of sixty various cancer cell lines; the results of the screening are outlined in Table 1 in the form of percent growth (GP %) of treated cells versus untreated cells used as control, where negative numbers indicate cell kill. The experimental results of growth inhibition may range from 0 to 100 and indicate a cytostatic effect while negative values indicate cell death and thus a cytotoxic activity (for NCI data see Supplementary Material Figures S6–S12).
The selectivity index (SI) was calculated by dividing the full panel MG_MID60 (μM) of tested compounds by their individual subpanel MG_MID of the cell line (μM); it correlates directly to the selectivity of their anticancer activity (Table 3). […] By contrast, despite its strong antiproliferative effect, compound 7 acts with low selectivity against the various human tumor cell lines, the highest SI value being 1.73.
Compounds 1, 2, and 4–8 were tested at one dose assay (10^−5 M) toward a panel of approximately sixty cancer cell lines representing different cancer types: leukemia, melanoma, lung, colon, CNS, ovarian, renal, prostate, and breast cancers. Primary anticancer assays were performed according to the NCI protocol as described elsewhere (see, e.g., http://dtp.nci.nih.gov accessed on 16 October 2019). The compounds were added at a single concentration and the cell cultures were incubated for 48 h. The end point determinations were made with a protein binding dye, sulforhodamine B (SRB). The results for each compound are reported as the percent growth (GP %) of treated cells compared to untreated control cells (negative numbers indicate cell kill). Compounds with considerable activity against all tested human tumor cell lines (6 and 7) were selected for the advanced assay against a panel of approximately sixty tumor cell lines at 10-fold dilutions of five concentrations (100 µM, 10 µM, 1 µM, 0.1 µM, and 0.01 µM). The percentage of growth was evaluated spectrophotometrically versus controls not treated with test agents after 48-h exposure and using SRB protein assay to estimate cell viability or growth. Three antitumor activity dose–response parameters were calculated for each cell line: GI50—molar concentration of the compound that inhibits 50% net cell growth; TGI—molar concentration of the compound leading to the total inhibition; and LC50—molar concentration of the compound leading to 50% net cell death (presented in negative logarithm). Furthermore, mean graph midpoints (MG_MID) were calculated for each of the parameters, giving an average activity parameter over all cell lines for the tested compound. For the MG_MID calculation, insensitive cell lines were included with the highest concentration tested.

HT29 = test: NCI-60 SRB screening (one-dose and five-dose); type: cell-based, human; details: 48 h
Method in brief: (§1)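 After a 48-h incubation with compound, cellular protein was stained with SRB and growth estimated by spectrophotometry relative to untreated controls.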

ACHN = test: NCI-60 SRB screening (one-dose and five-dose); type: cell-based, human; details: 48 h
Method in brief: (§2)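 Spectrophotometric SRB end point; 48-h drug exposure; percent of untreated-control growth reported.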

SK-MEL-28 = test: NCI-60 SRB screening (one-dose and five-dose); type: cell-based, human; details: 48 h
Method in brief: as §1

SN12C = test: NCI-60 SRB screening (one-dose and five-dose); type: cell-based, human; details: 48 h
Method in brief: (§3)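 Cells received compound at one concentration for 48 h. Growth was read by sulforhodamine B protein staining, as percentage versus untreated controls. Mean graph midpoints averaged each parameter over all cell lines, with insensitive lines entered at the highest tested concentration.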

NCI-H23 = test: NCI-60 SRB screening (one-dose and five-dose); type: cell-based, human; details: 48 h
Method in brief: as §1

M14 = test: NCI-60 SRB screening (one-dose and five-dose); type: cell-based, human; details: 48 h
Method in brief: as §3

MOLT-4 = test: NCI-60 SRB screening (one-dose and five-dose); type: cell-based, human; details: 48 h
Method in brief: as §3

HS 578T = test: NCI-60 SRB screening (one-dose and five-dose); type: cell-based, human; details: 48 h
Method in brief: as §1

MALME-3M = test: NCI-60 SRB screening (one-dose and five-dose); type: cell-based, human; details: 48 h
Method in brief: as §2

OVCAR-3 = test: NCI-60 SRB screening (one-dose and five-dose); type: cell-based, human; details: 48 h
Method in brief: as §2

UACC-62 = test: NCI-60 SRB screening (one-dose and five-dose); type: cell-based, human; details: 48 h
Method in brief: as §2

DU-145 = test: NCI-60 SRB screening (one-dose and five-dose); type: cell-based, human; details: 48 h
Method in brief: as §1

OVCAR-4 = test: NCI-60 SRB screening (one-dose and five-dose); type: cell-based, human; details: 48 h
Method in brief: as §1

SNB-19 = test: NCI-60 SRB screening (one-dose and five-dose); type: cell-based, human; details: 48 h
Method in brief: as §2

CCRF-CEM = test: NCI-60 SRB screening (one-dose and five-dose); type: cell-based, human; details: 48 h
Method in brief: as §1

PC-3 = test: NCI-60 SRB screening (one-dose and five-dose); type: cell-based, human; details: 48 h
Method in brief: as §2

CAKI-1 = test: NCI-60 SRB screening (one-dose and five-dose); type: cell-based, human; details: 48 h
Method in brief: as §1

OVCAR-8 = test: NCI-60 SRB screening (one-dose and five-dose); type: cell-based, human; details: 48 h
Method in brief: as §1

KM-12 = test: NCI-60 SRB screening (one-dose and five-dose); type: cell-based, human; details: 48 h
Method in brief: as §2

TK-10 = test: NCI-60 SRB screening (one-dose and five-dose); type: cell-based, human; details: 48 h
Method in brief: as §3

SR = test: NCI-60 SRB screening (one-dose and five-dose); type: cell-based, human; details: Homo sapiens, five dose 0.01–100 μM, 48 h
Method in brief: as §3

Bak gene = test: rtPCR gene expression in Sk-Mel-28 cells; type: cell-based, human
Excerpt: (§4) We applied rtPCR techniques in order to investigate the effect of our two compounds on the anti-apoptotic Bcl-XL and Bcl-2 genes as well as the proapoptotic Bak and Bad genes (Table 4). […] Therefore, we may presume that the apoptotic mechanism of both compounds against the A375 cells is not mediated by the tested genes or that alterations in their ratio are the underlying mechanism.

Bcl-XL gene = test: rtPCR gene expression in Sk-Mel-28 cells; type: cell-based, human
Excerpt: as §4

[2] = Homo sapiens, five dose 0.01–100 μM

## C[C@H]1[C@@H]2[C@H]3CC[C@@H]4[C@@]5(C)C/C(=C\c6cccnc6)C(=O)C(C)(C)[C@@H]5CC[C@@]4(C)[C@]3(C)CC[C@]23CO[C@@]1(C)[C@@H](C(=O)/C=C/c1cccnc1)C3 [Compound 6, 3-Oxo-2-(3-pyridinylidene)-21-[3-(2E-pyridinyl)-prop-2-en-1-one]-20β,28-epoxy-18α,19βH-ursane]
[1]; Breast Cancer subpanel
  Selectivity index (SI): 0.96
[1]; CNS Cancer subpanel
  Selectivity index (SI): 0.96
[1]; Colon Cancer subpanel
  Selectivity index (SI): 1.10
[1]; Homo sapiens, five-dose testing, all cell lines, read-out: GI50 values, range over the NCI-60 panel
  GI50: 30 to 5900 nM
[1]; Leukemia subpanel
  Selectivity index (SI): 5.30
[1]; Melanoma subpanel
  Selectivity index (SI): 1.01
[1]; Non-Small Cell Lung Cancer subpanel
  Selectivity index (SI): 0.87
[1]; Ovarian Cancer subpanel
  Selectivity index (SI): 0.57
[1]; Prostate Cancer subpanel
  Selectivity index (SI): 1.86
[1]; Renal Cancer subpanel
  Selectivity index (SI): 1.01
HT29; HT29, 10 μM
  Growth Percent: 26.36%
HT29; Homo sapiens, HT-29, HT29, five dose 0.01–100 μM
  GI50: 1500 nM
ACHN; 10 μM
  Growth Percent: −22.16%
ACHN; [2]
  GI50: 1410 nM
SK-MEL-28; Homo sapiens, SK-MEL-28, five dose 0.01–100 μM
  GI50: 940 nM
SK-MEL-28; SK-MEL-28, 10 μM
  Growth Percent: −17.77%
SN12C; 10 μM
  Growth Percent: −17.67%
SN12C; [2]
  GI50: 940 nM
NCI-H23; Homo sapiens, NCI-H23, five dose 0.01–100 μM
  GI50: 1040 nM
NCI-H23; NCI-H23, 10 μM
  Growth Percent: −48.71%
M14; Homo sapiens, M14, five dose 0.01–100 μM
  GI50: 1740 nM
M14; M14, 10 μM
  Growth Percent: −20.11%
MOLT-4; Homo sapiens, MOLT-4, five dose 0.01–100 μM
  GI50: 170 nM
MOLT-4; MOLT-4, 10 μM
  Growth Percent: 16.72%
HS 578T; 10 μM
  Growth Percent: 11.24%
HS 578T; [2]
  GI50: 1440 nM
MALME-3M; 10 μM
  Growth Percent: −33.54%
MALME-3M; [2]
  GI50: 800 nM
OVCAR-3; Homo sapiens, OVCAR-3, five dose 0.01–100 μM
  GI50: 880 nM
OVCAR-3; OVCAR-3, 10 μM
  Growth Percent: −43.66%
UACC-62; Homo sapiens, UACC-62, five dose 0.01–100 μM
  GI50: 600 nM
UACC-62; UACC-62, 10 μM
  Growth Percent: −25.57%
DU-145; DU-145, 10 μM
  Growth Percent: −28.80%
DU-145; Homo sapiens, DU-145, five dose 0.01–100 μM
  GI50: 930 nM
OVCAR-4; Homo sapiens, OVCAR-4, five dose 0.01–100 μM
  GI50: 1490 nM
OVCAR-4; OVCAR-4, 10 μM
  Growth Percent: 18.62%
SNB-19; Homo sapiens, SNB-19, five dose 0.01–100 μM
  GI50: 850 nM
SNB-19; SNB-19, 10 μM
  Growth Percent: 2.48%
CCRF-CEM; 10 μM
  Growth Percent: 17.92%
CCRF-CEM; [2]
  GI50: 170 nM
PC-3; Homo sapiens, PC-3, five dose 0.01–100 μM
  GI50: 260 nM
PC-3; PC-3, 10 μM
  Growth Percent: −3.56%
CAKI-1; CAKI-1, 10 μM
  Growth Percent: 9.32%
CAKI-1; Homo sapiens, CAKI-1, five dose 0.01–100 μM
  GI50: 1420 nM
OVCAR-8; Homo sapiens, OVCAR-8, five dose 0.01–100 μM
  GI50: 1600 nM
OVCAR-8; OVCAR-8, 10 μM
  Growth Percent: −13.55%
KM-12; Homo sapiens, KM12, KM-12, five dose 0.01–100 μM
  GI50: 910 nM
KM-12; KM-12, 10 μM
  Growth Percent: −55.61%
TK-10; Homo sapiens, TK-10, five dose 0.01–100 μM
  GI50: 1830 nM
TK-10; TK-10, 10 μM
  Growth Percent: −14.49%
SR
  GI50: 160 nM
Bak gene
  Bak gene expression, Mean: 22.826 ***
Bcl-XL gene
  Bcl-XL gene expression, Mean: 1.606
